Data reported in paper PMC10253536, “Bradykinin and Neurotensin Analogues as Potential Compounds in Colon Cancer Therapy” (International Journal of Molecular Sciences, 2023).
Non-standard residues stand in square brackets, D forms with d. Residues, ends and D or L forms follow the SMILES beside them. No end group written: not given here. *: point of attachment. Acetyl(1-adamantyl) = O=C(CC12CC3CC(CC(C3)C1)C2)*; Hyp = O=C(O)[C@@H]1C[C@@H](O)CN1; 2Thi = N[C@@H](Cc1cccs1)C(=O)O; Ac6c = NC1(C(=O)O)CCCCC1

How the values were obtained:
[1] = Stability test in human plasma; conditions: for stability in human plasma (in words): 0.4 mg/mL, 37 °C, up to 24 h, TCA or formic acid/urea procedure depending on peptide, RP-HPLC 223 nm, at least triplicates
Protocol: To check the stability of the studied peptides in human plasma, 24 h incubation of peptides in the appropriate medium was performed. For the studies, two methods were used. The first one involved the presence of trichloroacetic acid (TCA) as a protein precipitating reagent, while the second one involved a mixture of formic acid and urea. […] The procedure with the mixture of the formic acid and urea was used for BK-3, BK-4, BK-6, and BK-8.
• A. TCA procedure for peptides: BK, BK-1, BK-2, BK-5, BK-7, NT, and NT analogues.
Peptide stability tests were performed according to a TCA stability assay based on the method used by Nguyen et al.. Peptides were dissolved in water, mixed with 25% human plasma to a final concentration of 0.4 mg/mL, and incubated at 37 °C with agitation (300 rpm, Thermomixer, Eppendorf AG, Hamburg, Germany). After 0, 1, 2, 3, 4, and 24 h, […] of the solution was taken and mixed with 15% TCA to obtain a final concentration of 3% (v/v). The samples were incubated in ice for 10 min and centrifuged for 10 min (12,000 rpm, Microfuge 16, Beckman Coulter, Brea, CA, USA).
In the second method, peptides were dissolved in water, mixed with 25% human plasma to a final concentration 0.4 mg/mL, and incubated at 37 °C with agitation (300 rpm, Thermomixer, Eppendorf AG, Hamburg, Germany). After 0, 1, 2, 3, 4, and 24 h, […] of the solution was taken and mixed with 25 μL of a mixture of 1050 µL 6 M urea, 330 µL formic acid, and 120 µL water to a final peptide concentration of 0.4 mg/mL. The samples were incubated in ice for 10 min and centrifuged for 10 min (12,000 rpm, Microfuge 16, Beckman Coulter, Brea, CA, USA). Supernatants were analyzed by RP-HPLC on column Kinetex (2.6 µm, XB-C18 100 Å 150 × 2.1 mm) (Phenomenex, Torrance, CA, USA) using a linear gradient of acetonitrile (1–80% over 20 min) with detection at 223 nm. Peptides were quantified by their peak areas relative to the initial peak areas (0 min). All stability tests were performed at least in triplicates. As control samples, peptides dissolved only in water under the same conditions were used.

HCT116 cells [2] = experiment: Flow cytometry phenotype (CD133, CD44, CD29), HCT116 colonospheres; format: cell-based, human; conditions: spherical HCT116, 500 µg/mL, 24 h, vs untreated control, n = 5
Protocol: Figure 4 The phenotype of the colorectal cancer HCT116 cell line expanded in the form of colonospheres and treated with (A,C,E) bradykinin and (B,D,F) neurotensin analogues (500 µg/mL) for 24 h. The data are presented as fold change of frequency of cells with given phenotype in relation to untreated control cells. The control value is set at a level of 1. Bars and whiskers represent the median with min–max values (* p < 0.05 vs. untreated control cells; • p < 0.05 vs. BK treated cells; ANOVA Kruskal–Wallis test, n = 5).
Similarly as for the adherent HTC116 cells, we also tested the spherical form with respect to the presence of CD29 and CD44 integrins on their surface but not only in CD133+ (Figure 4C,D) but also in CD133 (Figure 4E,F). In these studies, the count of CD133+, CD44+, and CD29+ cells was not affected in spherical culture, while at the same time, we observed that CSCs in colonospheres were more likely to change the level of these markers within the CD133-negative population. […] In contrast, the analogues BK-4, BK-6, and BK-8 decreased the number of these cells.
HCT116 in both adherent (5 × 10^4 cells/mL in 24-well plate) and spherical forms (8 × 10^5/mL cells in 24-well ultra-low attachment plates) were maintained in appropriate medium. […]

HCT116 cells [3] = experiment: Cell death assay (7-AAD, flow cytometry), spherical HCT116 cells; format: cell-based, human; conditions: spherical HCT116, 500 µg/mL, 24 h, vs untreated control, n = 4
Description: We evaluated the percentage of nonviable cells of HTC116 following analogue treatment via a flow cytometric assay using 7-Amino Actinomycin D (7-AAD) dye according to the procedure presented in the Materials and Methods Section 4.6. This dye is excluded by living cells but binds selectively to the DNA of damaged permeabilized cells. We learned that the number of 7AAD-positive cells changed according to different scenarios in CRC cells cultured in adherent and spherical forms following the incubation with BK and NT analogues (Figure 6).
Figure 6 Analysis of the viability of colorectal cancer HCT116 cells expanded in spherical (A,B) or adherent (C,D) form and treated with bradykinin (A,C) and neurotensin analogues (B,D) (500 µg/mL) for 24 h. Cells were incubated with 7-AAD and analyzed by flow cytometry. The y-axis presents the fold increase in the frequency of 7-AAD+ cells compared to untreated control cells. (* p < 0.05 vs. untreated control cells; • p < 0.05 vs. BK/NT-treated cells; ANOVA Kruskal–Wallis test, n = 4). Data presented as bars and whiskers representing the median with min–max values).
Following BK and NT analogue treatment of HCT116 cells, we evaluated the proportion of dead cells in our samples. For this purpose, we used a 7AAD Via Probe (BD Biosciences, San Jose, CA, USA). […]

## N=C(N)NCCC[C@@H](N)C(=O)N[C@@H](CCCNC(=N)N)C(=O)N1CCC[C@H]1C(=O)N1C[C@H](O)C[C@H]1C(=O)NCC(=O)N[C@@H](Cc1cccs1)C(=O)N[C@@H](CO)C(=O)N[C@H](Cc1ccccc1)C(=O)NC1(C(=O)N[C@@H](CCCNC(=N)N)C(=O)O)CCCC1 [BK-2] (HELM PEPTIDE1{[dR].R.P.[Hyp].G.[O=C([C@H](Cc1cccs1)N[*:1])[*:2]].S.[dF].[O=C(C1(N[*:1])CCCC1)[*:2]].R}$$$$V2.0)
[1]; 25% human plasma
  stability in human plasma (in words): most stable

## N=C(N)NCCC[C@H](NC(=O)[C@H](Cc1cccs1)NC(=O)C1(NC(=O)[C@H](CO)NC(=O)[C@H](Cc2cccs2)NC(=O)CNC(=O)[C@@H]2C[C@@H](O)CN2C(=O)[C@@H]2CCCN2C(=O)[C@H](CCCNC(=N)N)NC(=O)[C@@H](CCCNC(=N)N)NC(=O)CC23CC4CC(CC(C4)C2)C3)CCCCC1)C(=O)O [BK-3]
[1]; 25% human plasma
  stability in human plasma (in words): least stable
[1]; human, 25% human plasma
  remaining at 24 h, 0.4 mg/mL: ~40%

## N=C(N)NCCC[C@H](NC(=O)C1(NC(=O)[C@@H](Cc2ccccc2)NC(=O)[C@H](CO)NC(=O)[C@H](Cc2cccs2)NC(=O)CNC(=O)[C@@H]2C[C@@H](O)CN2C(=O)[C@@H]2CCCN2C(=O)[C@H](CCCNC(=N)N)NC(=O)[C@@H](CCCNC(=N)N)NC(=O)CC23CC4CC(CC(C4)C2)C3)CCCCC1)C(=O)O [BK-4] ({Acetyl(1-adamantyl)}-[dR]RP[Hyp]G[2Thi]S[dF][Ac6c]R-OH)
[1]; 25% human plasma
  stability in human plasma (in words): most stable

## N=C(N)NCCC[C@@H](N)C(=O)N[C@@H](CCCNC(=N)N)C(=O)N1CCC[C@H]1C(=O)N1C[C@H](O)C[C@H]1C(=O)NCC(=O)N[C@@H](Cc1cccs1)C(=O)N[C@@H](CO)C(=O)N[C@H](Cc1ccccc1)C(=O)N1CCCC[C@H]1C(=O)N[C@@H](CCCNC(=N)N)C(=O)O [BK-5] (HELM PEPTIDE1{[dR].R.P.[Hyp].G.[O=C([C@H](Cc1cccs1)N[*:1])[*:2]].S.[dF].[O=C([C@@H]1CCCCN1[*:1])[*:2]].R}$$$$V2.0)
[1]; 25% human plasma
  stability in human plasma (in words): most stable

## N=C(N)NCCC[C@H](NC(=O)[C@H](Cc1cccs1)NC(=O)[C@H]1CCCCN1C(=O)[C@H](CO)NC(=O)[C@H](Cc1cccs1)NC(=O)CNC(=O)[C@@H]1C[C@@H](O)CN1C(=O)[C@@H]1CCCN1C(=O)[C@H](CCCNC(=N)N)NC(=O)[C@@H](CCCNC(=N)N)NC(=O)CC12CC3CC(CC(C3)C1)C2)C(=O)O [BK-8]
[1]; human, 25% human plasma
  remaining at 24 h, 0.4 mg/mL: 70%

## CC(C)C[C@H](NC(=O)[C@@H](NC(=O)[C@H](Cc1ccc(O)cc1)NC(=O)[C@@H]1CCCN1C(=O)[C@H](CCCCN)NC(=O)[C@H](CCCCN)NC(=O)CNC(=O)[C@H](CCC(=O)O)NC(=O)[C@@H]1CCCN1)C(C)(C)C)C(=O)O [NT-14] (HELM PEPTIDE1{P.E.G.K.K.P.Y.[CC(C)(C)[C@H](N[*:1])C(=O)[*:2]].L}$$$$V2.0)
[1]; 25% human plasma
  stability in human plasma (in words): better stability than the native peptide

## Neurotensin [NT]
HCT116 cells [2]
  CD133-CD44+CD29+ cell count in colonospheres: significantly increasing
HCT116 cells [3]
  number of nonviable 7AAD+ cells, spherical form: prominently increased

## RPPGFSPFR [BK, Bradykinin]
[1]; human, plasma
  remaining at 4 h, 0.4 mg/mL: 96%
  remaining at 24 h, 0.4 mg/mL: ~50%
